Structures can show the parent of a compound that is named as a salt. No end group written: not given here.
molecular target: T1, hB2 receptor (Homo sapiens, UniProt P30411); assay: In vitro Assay of hB2 Receptor Function using Calcium Flux; format: cell-based; conditions: recombinant CHO cells, antagonist IC50 against agonist at EC80
T1 construct: host or cells: CHO-K1
T1 sequence (P30411 1-391): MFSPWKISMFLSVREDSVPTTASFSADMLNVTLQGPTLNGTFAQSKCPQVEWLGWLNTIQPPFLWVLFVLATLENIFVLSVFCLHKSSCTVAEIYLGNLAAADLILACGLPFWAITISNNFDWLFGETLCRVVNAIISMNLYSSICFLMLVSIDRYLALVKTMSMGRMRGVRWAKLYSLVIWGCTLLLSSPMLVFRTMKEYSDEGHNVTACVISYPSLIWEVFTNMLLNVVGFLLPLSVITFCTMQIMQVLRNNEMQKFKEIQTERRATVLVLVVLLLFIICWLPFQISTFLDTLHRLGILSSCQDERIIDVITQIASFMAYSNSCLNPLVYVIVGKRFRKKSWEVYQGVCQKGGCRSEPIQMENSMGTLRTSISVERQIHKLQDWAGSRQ
Method: In vitro Assay of hB2 Receptor Function using Calcium Flux The intracellular calcium flux induced by hB2 receptor activation was analyzed using an hB2 recombinant cell line (CHO-K1) purchased from PerkinElmer (Catalog Number: RBHB2C000EA) on a fluorometric imaging plate reader (FLIPR). […] Culture medium was changed every other day. 24 h prior to the FLIPR assay, the hB2/CHO cells were washed once with PBS (Invitrogen) and 10 mL of Versene (1:5000, Invitrogen, Cat# 15040-066) was added to each flask. After 5 min incubation at 37° C., Versene was removed and cells were detached from the flask and resuspended in culture medium. Cells were counted and 25,000 cells/well were plated in 96-well black-sided clear bottom assay plates (Costar #3904). Cells were incubated in a 37° C. CO2 incubator overnight. The media was aspirated from the cells and replaced with 65 μL of dye-loading buffer. The loading buffer was prepared by diluting a stock solution of 0.5 mM Fluo-4 AM (Molecular Probes, dissolved in DMSO containing 10% [w/v] pluronic acid) to a concentration of 1 μM in Clear Dulbecco's Modified Eagle Medium (DMEM) containing 0.1% BSA, 20 mM HEPES, and 2.5 mM probenecid. The cells were dye-loaded for 1 h at RT. The excess dye was removed by washing the cells 2× with assay buffer. The assay buffer consists of Hank's Balanced Salt Solution (HBSS) containing 20 mM HEPES, 0.1% BSA, and 2.5 mM probenecid. After the wash cycles, a volume of 100 μL was left in each well, and the plate was ready to be assayed in the FLIPR System. […] The cell plate and the compound plates were loaded onto the FLIPR and during the assay, fluorescence readings are taken simultaneously from all 96 wells of the cell plate. Ten 1-second readings were taken to establish a stable baseline for each well, then 25 μL from the B1 antagonist plate was rapidly (50 μL/sec.) added. The fluorescence signal was measured in 1-second (1 min) followed by 6-second (2 min) intervals for a total of 3 min to determine if there is any agonist activity with the compounds.

| Compound | IC50 [nM] |
| --- | --- |
| Cc1ccc(S(=O)(=O)N2C=CNC(=O)[C@H]2CC(=O)N2C[C@@H](N)[C@H](c3ccccc3)C2)cc1 [T-3-10, (3R)-3-(2-((3S)-3-(amino)-4(R)-4-phenyl-1-pyrrolidinyl)-2-oxoethyl)-4-((4-methylphenyl)sulfonyl)-3,4-dihydro-2(1H)-pyrazinone] | 270 |
| Cc1ccc(S(=O)(=O)N2C=CNC(=O)[C@H]2CC(=O)NC2CCCCC2C2CCCCC2)cc1 (stereo partly drawn) [T-1-40, N-1,1′-bi(cyclohexyl)-2-yl-2-((2R)-1-((4-methylphenyl)sulfonyl)-3-oxo-1,2,3,4-tetrahydro-2-pyrazinyl)acetamide] | 200 |
| 2-((2R)-1-((4-chloro-2,5-dimethylphenyl)sulfonyl)-3-oxo-1,2,3,4-tetrahydro-2-pyrazinyl)-N-((4S)-3,3-dimethyl-4-piperidinyl)acetamide; and 2-((2R)-1-((4-chloro-2,5-dimethylphenyl)sulfonyl)-3-oxo-1,2,3,4-tetrahydro-2-pyrazinyl)-N-((4R)-3,3-dimethyl-4-piperidinyl)acetamide [T-1-48] | 400 |
| Cc1ccc(S(=O)(=O)N2C=CNC(=O)[C@H]2CC(=O)NC2CCN(c3ncccn3)CC2)cc1 [T-1-7, 2-((2R)-1-((4-methylphenyl)sulfonyl)-3-oxo-1,2,3,4-tetrahydro-2-pyrazinyl)-N-(1-(2-pyrimidinyl)-4-piperidinyl)acetamide] | 700 |
| Cc1ccc(S(=O)(=O)N2C=CNC(=O)[C@H]2CC(=O)NC2CC3CCC(C2)N3C)cc1 (stereo partly drawn) [T-1-34, N-((3-endo)-8-methyl-8-azabicyclo[3.2.1]oct-3-yl)-2-((2R)-1-((4-methylphenyl)-sulfonyl)-3-oxo-1,2,3,4-tetrahydro-2-pyrazinyl)acetamide; and N-((3-exo)-8-methyl-8-azabicyclo[3.2.1]oct-3-yl)-2-((2R)-1-((4-methylphenyl)-sulfonyl)-3-oxo-1,2,3,4-tetrahydro-2-pyrazinyl)acetamide] | 140 |
| Cc1ccc(S(=O)(=O)N2C=CNC(=O)[C@H]2CC(=O)N[C@@H]2CCCC[C@H]2C(C)(C)O)cc1 (mixture of isomers) [T-1-65, N-((1RS,2RS)-2-(1-hydroxy-1-methylethyl)cyclohexyl)-2-((2R)-1-((4-methylphenyl)sulfonyl)-3-oxo-1,2,3,4-tetrahydro-2-pyrazinyl)acetamide] | 2700 |
| Cc1ccc(C2CCN(C(=O)C[C@@H]3C(=O)NC=CN3S(=O)(=O)c3ccc(C)cc3)CC2)cc1 [T-3-48, (3R)-3-(2-(4-(4-methylphenyl)-1-piperidinyl)-2-oxoethyl)-4-((4-methylphenyl)-sulfonyl)-3,4-dihydro-2(1H)-pyrazinone] | 1600 |
| Cc1ccc(S(=O)(=O)N2C=CNC(=O)[C@H]2CC(=O)NC2CCC(NCC(C)(C)C)CC2(C)C)cc1 (mixture of isomers) [T-1-44] | 2300 |
| Cc1ccc(S(=O)(=O)N2C=CNC(=O)[C@H]2CC(=O)N2CCCC2c2cc3ccccc3[nH]2)cc1 (stereo partly drawn) [T-3-50, (3R)-3-(2-(2-RS-(1H-indol-2-yl)-1-pyrrolidinyl)-2-oxoethyl)-4-((4-methylphenyl)sulfonyl)-3,4-dihydro-2(1H)-pyrazinone] | > 4000 |
| COc1ccc(CC2CCCN2C(=O)C[C@@H]2C(=O)NC=CN2S(=O)(=O)c2ccc(C)cc2)cc1 (stereo partly drawn) [T-3-47, (3R)-3-(2-(2-RS-((4-(methyloxy)phenyl)methyl)-1-pyrrolidinyl)-2-oxoethyl)-4-((4-methylphenyl)sulfonyl)-3,4-dihydro-2(1H)-pyrazinone] | 390 |
| N-((3R)-1-(1-methylethyl)-3-piperidinyl)-2-((2R)-1-((4-methylphenyl)sulfonyl)-3-oxo-1,2,3,4-tetrahydro-2-pyrazinyl)acetamide; and N-((3S)-1-(1-methylethyl)-3-piperidinyl)-2-((2R)-1-((4-methylphenyl)sulfonyl)-3-oxo-1,2,3,4-tetrahydro-2-pyrazinyl)acetamide [T-1-11] | 530 |
| Cc1cc(S(=O)(=O)N2C=CNC(=O)[C@H]2CC(=O)N2CCC(CN3CCCC3)CC2)c(C)cc1Cl [T-3-18, (3R)-4-((4-chloro-2,5-dimethylphenyl)sulfonyl)-3-(2-oxo-2-(4-(1-pyrrolidinylmethyl)-1-piperidinyl)ethyl)-3,4-dihydro-2(1H)-pyrazinone] | 160 |
| Cc1ccc(S(=O)(=O)N2C=CNC(=O)[C@H]2CC(=O)N2CCCC2c2ccccc2)cc1 (stereo partly drawn) [T-3-43, (3R)-4-((4-methylphenyl)sulfonyl)-3-(2-oxo-2-(2RS-phenyl-1-pyrrolidinyl)ethyl)-3,4-dihydro-2(1H)-pyrazinone] | 2600 |
| Cc1cc(S(=O)(=O)N2C=CNC(=O)[C@H]2CC(=O)N2CCC(CO)CC2)c(C)cc1Cl [T-3-15, (3R)-4-((4-chloro-2,5-dimethylphenyl)sulfonyl)-3-(2-(4-(hydroxymethyl)-1-piperidinyl)-2-oxoethyl)-3,4-dihydro-2(1H)-pyrazinone] | 940 |

Further lines, results first:

| IC50 [nM] | Compound |
| --- | --- |
| 1 | COCCN1CC[C@@H](NC(=O)C[C@@H]2C(=O)NC=CN2S(=O)(=O)c2ccc(C)cc2)C(C)(C)C1 [T-1-120, N-((4R)-3,3-dimethyl-1-(2-(methyloxy)ethyl)-4-piperidinyl)-2-((2R)-1-((4-methylphenyl)sulfonyl)-3-oxo-1,2,3,4-tetrahydro-2-pyrazinyl)acetamide] |
| 3 | Cc1ccc(S(=O)(=O)N2C=CNC(=O)[C@H]2CC(=O)N(C)C2CCN(C)CC2)cc1 [T-2-1, 2-((2R)-1-((4-methylphenyl)sulfonyl)-3-oxo-1,2,3,4-tetrahydro-2-pyrazinyl)-N-methyl-N-(1-methyl-4-piperidinyl)acetamide] |
| 15 | Cc1cc(S(=O)(=O)N2C=CNC(=O)[C@H]2CC(=O)N2CCC3(CCNC3)C2)c(C)cc1Cl (stereo partly drawn) [T-3-26, (3R)-4-((4-chloro-2,5-dimethylphenyl)sulfonyl)-3-(2-(2,7-diazaspiro[4.4]non-2-yl)-2-oxoethyl)-3,4-dihydro-2(1H)-pyrazinone] |
| 20 | Cc1ccc(S(=O)(=O)N2C=CNC(=O)[C@H]2CC(=O)NC2CCN(CCc3ccccc3)CC2)cc1 [T-1-58, N-(1-(2-phenethyl)-4-piperidinyl)-2-((2R)-1-((4-methylphenyl)sulfonyl)-3-oxo-1,2,3,4-tetrahydro-2-pyrazinyl)acetamide] |
| 1.21 | Cc1ccc(S(=O)(=O)N2C=CNC(=O)[C@H]2CC(=O)NC2CCN(Cc3ccncc3)CC2(C)C)cc1 (mixture of isomers) [T-1-25, N-((4R)-3,3-dimethyl-1-(4-pyridinylmethyl)-4-piperidinyl)-2-((2R)-1-((4-methylphenyl)sulfonyl)-3-oxo-1,2,3,4-tetrahydro-2-pyrazinyl)acetamide; and N-((4S)-3,3-dimethyl-1-(4-pyridinylmethyl)-4-piperidinyl)-2-((2R)-1-((4-methyl-phenyl)sulfonyl)-3-oxo-1,2,3,4-tetrahydro-2-pyrazinyl)acetamide] |
| 61 | Cc1cc(S(=O)(=O)N2C=CNC(=O)[C@H]2CC(=O)N2CCC(N3CCCC3)C(C)(C)C2)c(C)cc1Cl (mixture of isomers) [T-3-30, (3R)-4-((4-chloro-2,5-dimethylphenyl)sulfonyl)-3-(2-((4R/S)-3,3-dimethyl-4-(1-pyrrolidinyl)-1-piperidinyl)-2-oxoethyl)-3,4-dihydro-2(1H)-pyrazinone] |
| 32 | Cc1cc(S(=O)(=O)N2C=CNC(=O)[C@H]2CC(=O)N2CCCC(N(C)C3CC3)CC2)c(C)cc1Cl (mixture of isomers) [T-3-28, (3R)-4-((4-chloro-2,5-dimethylphenyl)sulfonyl)-3-(2-((4R/S)-4-(cyclopropyl(methyl)amino)-1-azepanyl)-2-oxoethyl)-3,4-dihydro-2(1H)-pyrazinone trifluoroacetic acid salt] |

test system: not given; assay: not given; conditions: cited from earlier work

| Compound | half-life of BK in plasma |
| --- | --- |
| RPPGFSPFR [BK, Bradykinin] | approximately 17 seconds |
